Test results published in ChEMBL document CHEMBL4011587, “Design, synthesis and evaluation of novel ferulic acid-O-alkylamine derivatives as potential multifunctional agents for the treatment of Alzheimer's disease” (Eur J Med Chem, 2017).

What was measured:
[1] = Inhibition of BuChE in rat serum using butyrylthiocholine chloride as substrate measured after 15 mins by Ellman's method; conditions: 0.25 h
[2] = molecular target: Amyloid-beta precursor protein (Homo sapiens) (UniProt P05067); assay: Inhibition of amyloid beta (1 to 42) (unknown origin) self-aggregation at 25 uM after 24 hrs by thioflavin-T fluorescence assay relative to control
Acetylcholinesterase [3] = molecular target: T1, Acetylcholinesterase (Rattus norvegicus, UniProt P37136); assay: Inhibition of AChE in rat cortex homogenates using acetylthiocholine chloride as substrate measured after 15 mins by Ellman's method; type: ADME
T1 sequence (P37136 whole entry): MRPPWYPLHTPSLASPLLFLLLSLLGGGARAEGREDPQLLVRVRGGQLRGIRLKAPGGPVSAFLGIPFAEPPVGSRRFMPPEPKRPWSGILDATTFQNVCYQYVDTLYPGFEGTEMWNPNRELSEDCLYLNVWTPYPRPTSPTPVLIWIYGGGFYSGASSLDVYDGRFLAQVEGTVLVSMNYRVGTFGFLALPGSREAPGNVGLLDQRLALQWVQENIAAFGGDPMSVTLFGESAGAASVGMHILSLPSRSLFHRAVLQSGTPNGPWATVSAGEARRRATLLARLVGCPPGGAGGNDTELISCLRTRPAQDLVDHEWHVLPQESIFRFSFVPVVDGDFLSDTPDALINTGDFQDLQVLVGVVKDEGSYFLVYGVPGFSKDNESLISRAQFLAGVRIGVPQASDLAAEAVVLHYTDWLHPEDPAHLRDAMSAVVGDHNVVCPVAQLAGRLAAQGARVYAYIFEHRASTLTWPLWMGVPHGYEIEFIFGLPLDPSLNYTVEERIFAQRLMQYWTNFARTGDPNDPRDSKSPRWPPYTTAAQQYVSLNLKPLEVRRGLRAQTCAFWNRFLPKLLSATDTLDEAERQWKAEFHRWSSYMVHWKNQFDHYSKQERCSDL

Acetylcholinesterase [4] = molecular target: T2, Acetylcholinesterase (Electrophorus electricus, UniProt O42275); assay: Inhibition of electric eel AChE using acetylthiocholine chloride as substrate measured after 15 mins by Ellman's method; type: ADME
[5] = Antioxidant activity assessed as inhibition of AAPH-induced peroxyl radical generation measured as trolox equivalent at 1 to 10 uM preincubated for 15 mins followed by AAPH addition measured every minute for 90 mins by ORAC-FL assay; type: functional
[6] = Selectivity index, ratio of IC50 for electric eel AChE to IC50 for equine serum BuChE
Cholinesterase = Cholinesterase (Equus caballus, UniProt P81908); assay: Inhibition of equine serum BuChE using butyrylthiocholine chloride as substrate measured after 15 mins by Ellman's method
Acetylcholinesterase [7] = molecular target: T1, Acetylcholinesterase; assay: Inhibition of AChE in rat cortex homogenates at 25 umol/l using acetylthiocholine chloride as substrate measured after 15 mins by Ellman's method; conditions: 0.25 h
Acetylcholinesterase [8] = molecular target: T2, Acetylcholinesterase; assay: Inhibition of electric eel AChE at 25 uM using acetylthiocholine chloride as substrate measured after 15 mins by Ellman's method relative to control; conditions: 0.25 h

Chain of Amyloid-beta precursor protein (Homo sapiens) (P05067 whole entry): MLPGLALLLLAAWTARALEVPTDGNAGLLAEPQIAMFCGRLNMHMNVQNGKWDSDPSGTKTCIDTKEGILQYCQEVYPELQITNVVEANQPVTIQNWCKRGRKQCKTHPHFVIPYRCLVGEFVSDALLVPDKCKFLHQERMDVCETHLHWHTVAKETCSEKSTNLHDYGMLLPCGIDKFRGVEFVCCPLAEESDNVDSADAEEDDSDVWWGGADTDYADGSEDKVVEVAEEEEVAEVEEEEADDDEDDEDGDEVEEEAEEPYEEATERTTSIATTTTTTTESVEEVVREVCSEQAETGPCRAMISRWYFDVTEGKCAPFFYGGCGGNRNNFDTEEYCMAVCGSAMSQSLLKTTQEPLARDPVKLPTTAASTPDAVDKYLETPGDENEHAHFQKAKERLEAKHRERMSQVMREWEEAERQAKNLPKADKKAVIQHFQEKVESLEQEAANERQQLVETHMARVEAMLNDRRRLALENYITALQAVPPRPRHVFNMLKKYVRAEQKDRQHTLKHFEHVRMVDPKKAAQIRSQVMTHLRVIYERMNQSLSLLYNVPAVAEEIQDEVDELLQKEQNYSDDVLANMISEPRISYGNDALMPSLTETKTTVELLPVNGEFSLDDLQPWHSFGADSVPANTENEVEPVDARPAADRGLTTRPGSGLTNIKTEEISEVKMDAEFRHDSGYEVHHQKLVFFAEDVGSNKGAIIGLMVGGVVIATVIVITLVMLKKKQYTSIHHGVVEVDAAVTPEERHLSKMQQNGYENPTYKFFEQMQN
Chain of Cholinesterase (P81908 whole entry): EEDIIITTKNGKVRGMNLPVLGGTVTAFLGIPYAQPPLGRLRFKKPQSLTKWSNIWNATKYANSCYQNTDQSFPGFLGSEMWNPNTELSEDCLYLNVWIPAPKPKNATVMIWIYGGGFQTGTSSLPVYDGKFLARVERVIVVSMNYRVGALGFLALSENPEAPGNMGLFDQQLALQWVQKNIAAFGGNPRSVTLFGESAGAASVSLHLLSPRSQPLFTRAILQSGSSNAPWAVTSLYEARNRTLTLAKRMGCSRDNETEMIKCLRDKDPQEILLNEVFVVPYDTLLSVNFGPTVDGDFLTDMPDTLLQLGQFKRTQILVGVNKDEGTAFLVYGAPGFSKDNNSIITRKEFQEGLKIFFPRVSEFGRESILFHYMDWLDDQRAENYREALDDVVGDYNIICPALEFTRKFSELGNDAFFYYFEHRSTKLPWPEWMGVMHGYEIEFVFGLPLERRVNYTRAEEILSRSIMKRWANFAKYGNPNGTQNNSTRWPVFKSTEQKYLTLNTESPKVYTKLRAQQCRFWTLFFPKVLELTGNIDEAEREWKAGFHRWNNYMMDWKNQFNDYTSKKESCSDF
T2 sequence (O42275 whole entry): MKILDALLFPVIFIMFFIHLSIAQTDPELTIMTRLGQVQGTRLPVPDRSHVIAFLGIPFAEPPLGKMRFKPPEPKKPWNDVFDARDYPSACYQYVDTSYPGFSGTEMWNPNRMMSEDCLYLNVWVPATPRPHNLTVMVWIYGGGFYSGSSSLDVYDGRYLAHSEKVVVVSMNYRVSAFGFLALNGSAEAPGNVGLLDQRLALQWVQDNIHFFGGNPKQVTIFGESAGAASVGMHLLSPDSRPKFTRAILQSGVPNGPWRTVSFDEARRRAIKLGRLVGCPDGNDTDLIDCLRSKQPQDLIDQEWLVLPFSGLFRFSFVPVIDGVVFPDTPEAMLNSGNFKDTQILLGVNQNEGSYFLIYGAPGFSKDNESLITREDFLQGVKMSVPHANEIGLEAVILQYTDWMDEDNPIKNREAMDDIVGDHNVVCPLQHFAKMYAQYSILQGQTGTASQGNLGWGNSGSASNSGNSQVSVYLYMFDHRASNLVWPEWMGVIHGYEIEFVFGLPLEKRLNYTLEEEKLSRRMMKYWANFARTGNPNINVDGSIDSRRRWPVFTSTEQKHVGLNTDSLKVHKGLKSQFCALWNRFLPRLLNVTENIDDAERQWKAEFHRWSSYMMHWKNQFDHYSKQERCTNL

Row | Structure (SMILES) | IC50 [1] [µM] | inhibition [2] [%] | IC50 (Acetylcholinesterase [3]) [µM] | IC50 (Acetylcholinesterase [4]) [µM] | Activity [5] [equiv] | Ratio IC50 [6] | IC50 (Cholinesterase) [µM] | inhibition at 25 µM (Acetylcholinesterase [7]) [%] | inhibition at 25 µM (Acetylcholinesterase [8]) [%]
1 | COc1cc(/C=C/C(=O)N2CCC(Cc3ccccc3)CC2)ccc1OCCCN1CCN(Cc2ccccc2)CC1 | 41.2 | 50.3 | 65 | 8.4 | 0.7 | 6.9 | 1.22 | – | –
2 | COc1cc(/C=C/C(=O)N2CCC(Cc3ccccc3)CC2)ccc1OCCCN1CCN(c2ccccn2)CC1 | 62.1 | 36.3 | 75.3 | 10.4 | 0.47 | 12.1 | 0.86 | – | –
3 | COc1cc(/C=C/C(=O)N2CCC(Cc3ccccc3)CC2)ccc1OCCCCCCN1CCN(c2ncccn2)CC1 | 68.6 | 42 | – | 13.4 | 0.51 | 19.7 | 0.68 | 15.2 | –
4 | COc1cc(/C=C/C(=O)N2CCC(Cc3ccccc3)CC2)ccc1OCCCN1CCN(c2ncccn2)CC1 | 45.4 | 46.9 | 93.5 | 12.6 | 0.41 | 2.5 | 5.12 | – | –
5 | COc1cc(/C=C/C(=O)N2CCC(Cc3ccccc3)CC2)ccc1OCCCCN1CCN(Cc2ccccc2)CC1 | 41.3 | 54.6 | 56 | 2.53 | 0.67 | 6.5 | 0.39 | – | –
6 | COc1cc(/C=C/C(=O)O)ccc1O [FERULATE] | – | – | – | – | 1.1 | – | – | – | < 5
7 | COc1cc(/C=C/C(=O)N2CCC(Cc3ccccc3)CC2)ccc1OCCCN1CCc2ccccc2C1 | 2.28 | 55.6 | 1.89 | 2.21 | 0.51 | 18.4 | 0.12 | – | –
8 | COc1cc(/C=C/C(=O)N2CCC(Cc3ccccc3)CC2)ccc1O | – | 65.9 | – | – | 1.2 | – | 5.7 | – | < 5
9 | COc1cc(/C=C/C(=O)N2CCC(Cc3ccccc3)CC2)ccc1OCCCCCN1CCN(Cc2ccccc2)CC1 | 61.5 | 55.9 | 79.8 | 2.62 | 0.66 | 1.2 | 2.23 | – | –
10 | COc1cc2c(cc1OC)C(=O)C(CC1CCN(Cc3ccccc3)CC1)C2 (stereo unspecified) [DONEPEZIL] | 4.42 | – | – | – | – | – | – | – | –
